In brackets after ≈: the same amount, converted by molar mass.
What was measured:
[1] = tested on: Staphylococcus aureus UC ® 9213; experiment: in vitro antibacterial activity, Minimum Inhibitory Concentration, Staphylococcus aureus; settings: for MIC: Staphylococcus aureus, UC9213, read-out: Minimum Inhibitory Concentration; for Minimum Inhibitory Concentration: in vitro, Staphylococcus aureus UC ® 9213
[2] = tested on: Streptococcus pyogenes UC ® 152; experiment: in vitro antibacterial activity, Minimum Inhibitory Concentration, Streptococcus pyogenes; settings: for MIC: Streptococcus pyogenes, UC152, read-out: Minimum Inhibitory Concentration; for Minimum Inhibitory Concentration: in vitro, Streptococcus pyogenes UC ® 152

| Molecule | MIC [1] [µg/mL] | MIC [2] [µg/mL] | Minimum Inhibitory Concentration [1] [µg/mL] | Minimum Inhibitory Concentration [2] [µg/mL] |
| --- | --- | --- | --- | --- |
| COc1ccc(-c2ccc(N3C[C@H](CNC(C)=O)OC3=O)cc2)ccc1=O [Compound 28, (S)-N-[[3-[4-methoxy-5-oxo-1,3,6-cycloheptatrien-yl)phenyl-2-oxo-5-oxazolidinyl)methyl]-acetamide] | 1 (≈ 2.71 µM) | – | – | – |
| CC(=O)NCC1CN(c2ccc(-c3ccc(NC4CCCC4)c(=O)cc3)cc2)C(=O)O1 (racemic) [Compound 11, (±)-N-[[3-[4-(4-cyclopentylamino-5-oxo-1,3,6-cycloheptatrien-1-yl)phenyl]-2-oxo-5-oxazolidinyl]methyl]-acetamide] | 4 (≈ 9.49 µM) | 1 (≈ 2.37 µM) | – | – |
| CC(=O)NCC1CN(c2ccc(-c3ccc(N4CCNC(C)C4)c(=O)cc3)cc2)C(=O)O1 (racemic) [Compound 17, (±)-N-[[3-[4-[4-(3-methyl-1-piperazinyl)-5-oxo-1,3,6-cycloheptatrien-1-yl]phenyl]2-oxo-5-oxazolidinyl]methyl]-acetamide] | 8 (≈ 18.3 µM) | 0.25 (≈ 0.573 µM) | – | – |
| CC(=O)NCC1CN(c2ccc(-c3ccc(N4CC=CC4)c(=O)cc3)cc2)C(=O)O1 (racemic) [Compound 32, (±)-N-[[3-[4-[4-(2,5dihydro-1H--pyrrol-1-yl)-5-oxo-1,3,6-cycloheptatrien-1-yl]phenyl]-2-oxo-5-oxazolidinyl]methyl]-acetamide] | 32 (≈ 78.9 µM) | 4 (≈ 9.87 µM) | – | – |
| CCCCNc1ccc(-c2ccc(N3CC(CNC(C)=O)OC3=O)cc2)ccc1=O (racemic) [Compound 13, (±)-N-[[3-[4-(4-butylamino-5-oxo-1,3,6-cycloheptatrien-1-yl)phenyl]-2-oxo-5-oxazolidinyl]methyl]-acetamide] | 2 (≈ 4.88 µM) | 0.5 (≈ 1.22 µM) | – | – |
| CC(=O)NCC1CN(c2ccc(-c3ccc(N4CCOCC4)c(=O)cc3)cc2)C(=O)O1 (racemic) [Compound 5, (±)-N-[[3-[4-[4-(4-morpholino)-5-oxo1,3,6-cycloheptatrien-1-yl]phenyl]2oxo5-oxazolidinyl]methyl]-acetamide] | 2 (≈ 4.72 µM) | 0.5 (≈ 1.18 µM) | – | – |
| C=CCNc1ccc(-c2ccc(N3CC(CNC(C)=O)OC3=O)cc2)ccc1=O (racemic) [Compound 8, (±)-N-[[3-[4-[4-(2-propenylamino)5-oxo-1,3,6-cycloheptatrien-1-yl]phenyl]-2-oxo-5-oxazolidinyl]methyl]-acetamide] | 2 (≈ 5.08 µM) | 0.5 (≈ 1.27 µM) | – | – |
| CC(=O)NC[C@H]1CN(c2ccc(-c3ccc(N4CCOCC4)c(=O)cc3)c(F)c2)C(=O)O1 [Compound 36, (S)-N-[[3-[3-fluoro4[(4-morpholino)-5-oxo-1,3,6cycloheptatrien-1-yl]phenyl]-2-oxo-5oxazolidinyl]methyl]-acetamide] | 2 (≈ 4.53 µM) | 0.5 (≈ 1.13 µM) | – | – |
| (±)-N-[[3-[4-[4-(3-amino-1-yl]phenyl]-2-oxo-5-oxazolidinyl]methyl]-acetamide [Compound 23] | – | – | 16 | 0.25 |
| CCOc1ccc(-c2ccc(N3CC(CNC(C)=O)OC3=O)cc2)ccc1=O (racemic) [Compound 22, (±)-N-[[3-[4-(4-ethoxy-5-oxo-1,3,6-cycloheptatrien-1-yl]phenyl]-2-oxo5-oxazolidinyl]methyl]-acetamide] | 4 (≈ 10.5 µM) | 0.5 (≈ 1.31 µM) | – | – |
| CC(=O)NCC1CN(c2ccc(-c3cccc(N4CCOCC4)c(=O)c3)cc2)C(=O)O1 (racemic) [Compound 27, (±)-N-[]3-[4-4-(4-morpholinyl)-3-oxo-1,4,6-cycloheptatrien-1-yl]phenyl]-2-oxo-5-oxazolidinyl]methyl]-acetamide] | 4 (≈ 9.45 µM) | 1 (≈ 2.36 µM) | – | – |
| COc1ccc(-c2ccc(N3CC(CNC(C)=O)OC3=O)cc2F)ccc1=O (racemic) [Compound 16, (±)-N-[[3-[3-fluoro-4-(4-methoxy-5-oxo-1,3,6-cycloheptatrien-1-yl)phenyl]-2-oxo-5-oxazolidinyl]methyl]-acetamide] | 1 (≈ 2.59 µM) | 0.25 (≈ 0.647 µM) | – | – |
| CC(=O)NCC1CN(c2ccc(-c3ccc(N4CCN(C=O)CC4)c(=O)cc3)cc2)C(=O)O1 (racemic) [Compound 7, (±)-N-[[3-[4-[4-(4-formyl-1-piperazinyl)-5-oxo-1,3,6-cycloheptatrien-1-yl]phenyl]-2-oxo-5-oxazolidinyl]methyl]-acetamide] | 4 (≈ 8.88 µM) | 0.5 (≈ 1.11 µM) | – | – |
| C=CCOc1ccc(-c2ccc(N3CC(CNC(C)=O)OC3=O)cc2)ccc1=O (racemic) [Compound 33, (±)-N-[[3-[4-[4-(2-propenyloxy)5-oxo-1,3,6-cycloheptatrien-1-yl]phenyl]-2-oxo-5-oxazolidinyl)methyl]-acetamide] | 4 (≈ 10.1 µM) | 1 (≈ 2.54 µM) | – | – |
| CC(=O)NCC1CN(c2ccc(-c3ccc(N4C[C@@H](C)N[C@@H](C)C4)c(=O)cc3)cc2)C(=O)O1 (mixture of isomers) [Compound 14, (±)-N-[[3-[4-[4-(cis-3,5-dimethyl-1-piperazinyl)-5-oxo-1,3,6-cycloheptatrien-1-yl]phenyl]-2-oxo5-oxazolidinyl]methyl]-acetamide] | 8 (≈ 17.8 µM) | 0.5 (≈ 1.11 µM) | – | – |
| COC(=O)CNc1ccc(-c2ccc(N3CC(CNC(C)=O)OC3=O)cc2)ccc1=O (racemic) [Compound 30, (±)-N-[[3-[4-[-[[(methoxycarbonyl)methyl]amino]-5-oxo-1,3,6cycloheptatrien-1-yl]phenyl]-2-oxo-5-oxazolidinyl]methyl]-acetamide] | – | – | 4 | 1 |

| Molecule | MIC [1] [µg/mL] | MIC [2] [µg/mL] | Minimum Inhibitory Concentration [1] [µg/mL] | Minimum Inhibitory Concentration [2] [µg/mL] |
| --- | --- | --- | --- | --- |
| CC(=O)NCC1CN(c2ccc(-c3ccc(N4CCCCC4)c(=O)cc3)cc2)C(=O)O1 (racemic) [Compound 15, (±)-N-[[3-[4-[4-(1-piperidinyl)-5-oxo-1,3,6-cycloheptatrien-1-yl]phenyl]-2-oxo-5-oxazolidinyl]methyl]-acetamide] | 2 (≈ 4.74 µM) | 1 (≈ 2.37 µM) | – | – |
| CC(=O)NCC1CN(c2ccc(-c3ccc(NC4CC4)c(=O)cc3)cc2)C(=O)O1 (racemic) [Compound 6, (±)-N-[[3-[4-(4-cyclopropylamino-5-oxo-1,3,6-cycloheptatrien-1-yl)phenyl]-2-oxo-5-oxazolidinyl]methyl]-acetamide] | 2 (≈ 5.08 µM) | 0.5 (≈ 1.27 µM) | – | – |
| CNc1ccc(-c2ccc(N3CC(CNC(C)=O)OC3=O)cc2)ccc1=O (racemic) [Compound 31, (±)-N-[[3-[4-(4-methylamino--5-oxo1,3,6-cyclopheptatrien1-yl)phenyl]2-oxo-5-oxazolidinyl]methyl]-acetamide] | 2 (≈ 5.44 µM) | 0.25 (≈ 0.68 µM) | – | – |
| CC(=O)NCC1CN(c2ccc(-c3ccc(N4CCN(C)CC4)c(=O)cc3)cc2)C(=O)O1 (racemic) [Compound 10, (±)-N-[[3-[4-[4-(4-methyl-1-piperazinyl)-5-oxo-1,3,6-cycloheptatrien-1-yl]phenyl]-2-oxo-5-oxazolidinyl]methyl]-acetamide] | 2 (≈ 4.58 µM) | 0.12 (≈ 0.275 µM) | – | – |
| COc1cccc(-c2ccc(N3CC(CNC(C)=O)OC3=O)cc2)cc1=O (racemic) [Compound 20, (±)-N-[[3-[4-[4-methoxy-3-oxo-1,4,6-cycloheptatrien-1-yl)phenyl]-2-oxo-5-oxazolidinyl]methyl]-acetamide] | 4 (≈ 10.9 µM) | 0.5 (≈ 1.36 µM) | – | – |
| COc1ccc(-c2ccc(N3CC(CNC(C)=O)OC3=O)cc2)ccc1=O (racemic) [Compound 1, (±)-N[[3-[4-(4-methoxy-5-oxo-,1,3,6-cycloheptatrien-yl)phenyl]-2-oxazolidinyl]methyl-acetamide] | 2 (≈ 5.43 µM) | 0.25 (≈ 0.679 µM) | – | – |
| CC(=O)NCC1CN(c2ccc(-c3ccc(N4CCCC4)c(=O)cc3)cc2)C(=O)O1 (racemic) [Compound 9, (±)-N-[[3-[4-[4-(1-pyrrolidinyl)-5-oxo-1,3,6-cycloheptatrien-1-yl]]phenyl]-2-oxo-5-oxazolidinyl]methyl]-acetamide] | 4 (≈ 9.82 µM) | 1 (≈ 2.45 µM) | – | – |
| CC(=O)NCC1CN(c2ccc(-c3ccc(OC(C)C)c(=O)cc3)cc2)C(=O)O1 (racemic) [Compound 24, (±)-N[[3-[4-[4-(1-methylethoxy)-5-oxo-1,3,6-cycloheptatrien-1-yl]phenyl]-2-oxo-5-oxazolidinyl]methyl]-acetamide] | 4 (≈ 10.1 µM) | 1 (≈ 2.52 µM) | – | – |
| COc1ccc(-c2ccc(N3C[C@H](CNC(C)=O)OC3=O)cc2F)ccc1=O [Compound 19] | 1 (≈ 2.59 µM) | 0.25 (≈ 0.647 µM) | – | – |
| CC(=O)NCC1CN(c2ccc(-c3ccc(N4CCC(O)C4)c(=O)cc3)cc2)C(=O)O1 (racemic) [Compound 18, (±)-N-[[3-[4-[4-(3-hydroxy-1-pyrrolidinyl)-5-oxo-1,3,6-cycloheptatrien-1-yl]phenyl]-2-oxo-5oxazolidinyl]methyl]-acetamide] | 4 (≈ 9.45 µM) | 1 (≈ 2.36 µM) | – | – |
| C#CCNc1ccc(-c2ccc(N3C[C@H](CNC(C)=O)OC3=O)cc2F)ccc1=O [Compound 34] | – | – | 1 | 0.25 |
| C=CCNc1cccc(-c2ccc(N3CC(CNC(C)=O)OC3=O)cc2)cc1=O (racemic) [Compound 26, (±)-N[[3-[4-[4-(2-propenylamino)-3-oxo1,4,6-cycloheptatrien-1-yl]phenyl-2oxo-5-oxazolidinyl]methyl]-acetamide] | 2 (≈ 5.08 µM) | 1 (≈ 2.54 µM) | – | – |
| C#CCNc1cccc(-c2ccc(N3CC(CNC(C)=O)OC3=O)cc2)cc1=O (racemic) [Compound 29, (±)-N-[[3-[4-[4-(2-pyopynylamino)-3-oxo-1,4,6-cycloheptatrien-1-yl)phenyl]2-oxo-5-oxazolidinyl]methyl-acetamide] | 2 (≈ 5.11 µM) | 0.5 (≈ 1.28 µM) | – | – |
| CC(=O)NCC1CN(c2ccc(-c3ccc(NCc4ccccc4)c(=O)cc3)cc2)C(=O)O1 (racemic) [Compound 3, (±)-Acetamide, N-[[2-oxo-3-[4-[5-oxo-4-[(phenylmethyl)amino]-1,3,6-cycloheptatrien-1-yl]phenyl]-5-oxazolidinyl]methyl]] | > 64 | 4 (≈ 9.02 µM) | – | – |
| CCN(CC)c1ccc(-c2ccc(N3CC(CNC(C)=O)OC3=O)cc2)ccc1=O (racemic) [Compound 2, (±)-N[[3-[4-(4-diethylamino-5-oxo-1,3,6-cycloheptatrien-1-yl)phenyl]-2-oxo-5-oxazolidinyl]methyl]-acetamide] | 4 (≈ 9.77 µM) | 1 (≈ 2.44 µM) | – | – |

Reference: US5523403A, “Tropone-substituted phenyloxazolidinone antibacterial agents” (The Upjohn Company, priority 1995, dated 1996)
